Source: patent publication US20230157290A1, “ALKENE-CONTAINING CARBOXYLATE COMPOUND AND USE THEREOF” (SHENYANG SINOCHEM AGROCHEMICALS R&D CO., LTD, priority 2019, published 2023)

Columns and labels:
Assay type in all cases: in vivo
Conditions in all cases: after emergence
[1] = system: green bristlegrass; test: Herbicidal activity, post-emergence stem and leaf spray, greenhouse: green bristlegrass control
Description: (§1) Seeds of broadleaf weeds (zinnia and piemarker) or grassy weeds (green bristlegrass and barnyard grass) were respectively sown in a paper cup having a diameter of 7 cm and containing nutrient soil; after sowing, the seeds were covered with 1 cm of soil, the soil was pressed and watered, and then the seeds were cultivated in a greenhouse according to a conventional method; and stems and leaves were sprayed after 2-3 leaf stage of the weeds.
(§2) After the original medicinal acetone was dissolved, the test requires to use 1‰ of Tween 80 to stand in running water to prepare the solution to be tested with a required concentration. According to the design dose of the test, spray treatment was carried out on a track-type crop sprayer (designed and produced by British Engineer Research Ltd.) (spray pressure is 1.95 kg/cm^2, spray volume is 500 L/hm^2 and track speed is 1.48 km/h). The test was repeated for three times. The test material was treated and then placed in an operation hall. The medicinal liquid was naturally dried in the shade, and then was placed in a greenhouse and managed according to the conventional method. The response of the weeds to the drug was observed and recorded. After treatment, the control effects of the test drug on the weeds were visually inspected regularly, expressed by 0-100%. “0” represents no control effect and “100%4” represents complete killing.
According to the above test method, part of the compounds of the formula I and KC1 or KC2 are selected for activity test of controlling the green bristlegrass.

[2] = system: barnyard grass; test: Herbicidal activity, post-emergence stem and leaf spray, greenhouse: barnyard grass control
Description: as §1, §2
According to the above test method, part of the compounds of the formula I and KC1 or KC2 are selected for activity test of controlling the barnyard grass.

[3] = system: zinnia; test: Herbicidal activity, post-emergence stem and leaf spray, greenhouse: zinnia control
Description: as §1, §2
According to the above test method, part of the compounds of the formula I and KC1 are selected for activity test of controlling the zinnia.

[4] = system: piemarker; test: Herbicidal activity, post-emergence stem and leaf spray, greenhouse: piemarker control
Description: as §1, §2
According to the above test method, part of the compounds of the formula and KC1 are selected for activity test of controlling the piemarker.

[5] = dose 600 g a.i./hm^2, visual, 0 = no control effect, 100% = complete killing

| SMILES | Green bristlegrass control activity (control effect %) ([1]; dose 37.5 g a.i./hm^2) [%] | Green bristlegrass control activity (control effect %) ([1]; dose 150 g a.i./hm^2) [%] | Barnyard grass control activity (control effect %) ([2]; dose 37.5 g a.i./hm^2) [%] | Barnyard grass control activity (control effect %) ([2]; dose 150 g a.i./hm^2) [%] | Zinnia control activity (control effect %) ([3]; dose 37.5 g a.i./hm^2) [%] | Zinnia control activity (control effect %) ([3]; dose 150 g a.i./hm^2) [%] | Zinnia control activity (control effect %) [3, 5] [%] | Piemarker control activity (control effect %) ([4]; dose 37.5 g a.i./hm^2) [%] | Piemarker control activity (control effect %) ([4]; dose 150 g a.i./hm^2) [%] | Piemarker control activity (control effect %) ([4]; dose 600 g a.i./hm^2) [%] | Green bristlegrass control activity (control effect %) ([1]; dose 600 g a.i./hm^2) [%] | Barnyard grass control activity (control effect %) ([2]; dose 600 g a.i./hm^2) [%] |
| --- | --- | --- | --- | --- | --- | --- | --- | --- | --- | --- | --- | --- |
| Cn1nc(C2CC2)c(C(=O)c2ccc(C(F)(F)F)cc2S(C)(=O)=O)c1OC(=O)C1=CCCCC1 [KC2, reference compound] | 30 | 60 | 60 | 90 |  |  |  |  |  |  |  |  |
| Cc1nn(C)c(OC(=O)/C=C/c2ccccc2)c1C(=O)c1ccc([N+](=O)[O-])cc1Cl [KC1, reference compound] | 10 | 10 | 0 | 0 | 0 | 0 | 0 | 20 | 70 | 100 | 10 | 0 |
| COCCOCc1c(S(C)(=O)=O)ccc(C(=O)c2c(C)nn(C)c2OC(=O)/C=C/c2ccc3c(c2)OCO3)c1Cl [Compound 1-82] |  |  | 90 | 95 |  |  |  |  |  |  |  | 100 |
| Cc1c(C(=O)c2cnn(C)c2OC(=O)C2=CCCCC2)ccc(S(C)(=O)=O)c1C1=NOCC1 [Compound 2-121] | 80 | 90 |  |  |  |  |  |  |  |  | 98 |  |
| Cc1nn(C)c(OC(=O)C2=CCCCC2)c1C(=O)c1ccc(S(C)(=O)=O)c(OCC2CCCO2)c1C (stereo not shown) [Compound 2-73] |  |  | 95 | 100 |  |  |  |  |  |  |  | 100 |
| CCOc1c(S(C)(=O)=O)ccc(C(=O)c2c(C)nn(C)c2OC(=O)/C=C/c2ccccc2)c1C [Compound 1-280] | 80 | 90 | 85 | 95 |  |  |  |  |  |  | 100 | 100 |
| Cc1c(S(C)(=O)=O)ccc(C(=O)c2cnn(C)c2OC(=O)/C=C/c2ccc3c(c2)OCO3)c1Cl [Compound 1-42] |  |  | 80 | 95 | 100 | 100 | 100 | 90 | 95 | 100 |  | 100 |
| COCCOc1c(S(C)(=O)=O)ccc(C(=O)c2cnn(C)c2OC(=O)C2=CCCCC2)c1C [Compound 2-67] |  |  | 90 | 100 |  |  |  |  |  |  |  | 100 |
| Cc1nn(C)c(OC(=O)/C=C/c2ccccc2)c1C(=O)c1ccc(C(F)(F)F)cc1S(C)(=O)=O [Compound 1-1] |  |  |  |  |  |  |  | 90 | 95 | 100 |  |  |
| Cc1nn(C)c(OC(=O)C2=CCCCC2)c1C(=O)c1ccc(S(C)(=O)=O)c(OCC(F)(F)F)c1C [Compound 2-37] |  |  | 95 | 100 |  |  |  |  |  |  |  | 100 |
| COCCOCc1c(S(C)(=O)=O)ccc(C(=O)c2c(C)nn(C)c2OC(=O)/C=C/c2ccc(-c3ccccc3)cc2)c1Cl [Compound 1-81] |  |  | 80 | 90 | 90 | 95 | 100 |  |  |  |  | 95 |
| Cc1c(C(=O)c2cnn(C)c2OC(=O)/C=C/c2ccccc2)ccc(S(C)(=O)=O)c1C1=NOCC1 [Compound 1-292] | 90 | 90 | 90 | 95 |  |  |  | 90 | 90 | 95 | 95 | 100 |
| Cc1c(C(=O)c2cnn(C)c2OC(=O)C2=CCCC2)ccc(S(C)(=O)=O)c1C1=NOCC1 [Compound 2-123] | 90 | 100 | 100 | 100 |  |  |  |  |  |  | 100 | 100 |
| COCCOc1c(S(C)(=O)=O)ccc(C(=O)c2c(C)nn(C)c2OC(=O)/C=C/c2ccccc2)c1C [Compound 1-259] | 100 | 100 | 100 | 100 |  |  |  | 100 | 100 |  |  |  |
